According to article PMC6393897, “An LC-MS/MS Method for Simultaneous Determination of the Toxic and Active Components of Cortex Periplocae in Rat Plasma and Application to a Pharmacokinetic Study” (International Journal of Analytical Chemistry, 2019):
Like-named read-outs stand apart in the source and are kept apart here.

What was measured:
[1] = Pharmacokinetic study in rats after oral administration of cortex periplocae extract (plasma LC-MS/MS); format: in vivo, rat; conditions: oral cortex periplocae extract 18.9 g/kg; for AUC: 0-48 h, read-out: AUC(0-tn); for MRT: read-out: MRT(0-tn)
Experimental: The pharmacokinetic study was conducted in accordance with the Guidelines for the Care and Use of Laboratory Animals and approved by the Animal Ethics Committee of Tianjin University of Traditional Chinese Medicine. […] Appropriate amount of cortex periplocae extract was suspended in 0.5% carboxymethyl cellulose sodium salt aqueous solution (CMC-Na) and the volume of oral administration was 1 mL/100g. […] The rats were anesthetized with ethyl ether before each withdrawal. […] For this repeat bleeds at short intervals, fluid replacement (appropriate volume of physiological saline) was required. The blood samples were immediately centrifuged 10 min at 7000 rpm. The obtained plasma was transferred into another centrifuge tube and stored at -80°C for analysis.
For the maximum drug concentration in plasma (Cmax) and the time to reach maximum drug concentration (Tmax), the values could be directly obtained. The other key parameters such as the area under the plasma concentration–time curve (AUC), elimination half-life (t1/2), and mean residence time (MRT) were calculated with DAS (Drug and Statistics 1.0, Medical College of Wannan, China) using non-compartmental model.

[2] = Stability of stock and working solutions stored 2 weeks at 4°C; format: physicochemical
Experimental: The QC samples (n = 6) at three concentrations (low, medium, and high) were also used to assess the stabilities of all analytes. […] For the freeze/thaw cycle stability, the QC samples stored at -80°C were subjected to three freeze to thaw (at room temperature) cycles. […] The mixed analytes solution (100 ng/mL), which was obtained by diluting the stock solution stored for two weeks at 4°C, was used to evaluate the stability of stock solution. The stability of analytes working solution was also assessed by storing solutions 2 weeks at 4°C. The stabilities of stock and working solutions of ISs were determined by the same procedure as that for the analytes.

[3] = Stability of analytes in rat plasma QC samples (autosampler, room temperature, freeze/thaw, -80°C); format: in vitro ADME; conditions: for Freeze thaw cycles stability, Accuracy: three freeze (-80°C)/thaw cycles
Experimental: The QC samples (n = 6) at three concentrations (low, medium, and high) were also used to assess the stabilities of all analytes. The QC samples under autosampler condition for 24 h were determined to evaluate the autosampler 24 h stability. For the freeze/thaw cycle stability, the QC samples stored at -80°C were subjected to three freeze to thaw (at room temperature) cycles. QC samples stored at room temperature for 24 h and -80°C for 1 month were used to evaluate the short-term stability and the long-term stability. The mixed analytes solution (100 ng/mL), which was obtained by diluting the stock solution stored for two weeks at 4°C, was used to evaluate the stability of stock solution. The stability of analytes working solution was also assessed by storing solutions 2 weeks at 4°C. The stabilities of stock and working solutions of ISs were determined by the same procedure as that for the analytes.

[4] = 2 weeks at 4°C, high level (1200 ng/mL isovanillin, periplocin; 240 ng/mL scopoletin, periplogenin, periplocymarin)
[5] = 2 weeks at 4°C, low level (7.2 ng/mL isovanillin, periplocin; 1.44 ng/mL scopoletin, periplogenin, periplocymarin)
[6] = 2 weeks at 4°C, medium level (120 ng/mL isovanillin, periplocin; 24 ng/mL scopoletin, periplogenin, periplocymarin)
[7] = n = 6, high level (1200 ng/mL isovanillin, periplocin; 240 ng/mL others)
[8] = n = 6, low level (7.2 ng/mL isovanillin, periplocin; 1.44 ng/mL others)
[9] = n = 6, medium level (120 ng/mL isovanillin, periplocin; 24 ng/mL others)
[10] = male Sprague-Dawley rats, plasma, n = 6, mean ± SD
[11] = male, Sprague-Dawley, rat, in vivo, po, 18.9 g/kg, male Sprague-Dawley rats, plasma, n = 6, mean ± SD
[12] = rat, in vivo, male Sprague-Dawley rats, plasma, n = 6, mean ± SD
[13] = rat, in vivo, male Sprague-Dawley rats, plasma, n = 6, mean ± SD, read-out: Cmax
[14] = rat, male Sprague-Dawley rats, plasma, n = 6, mean ± SD

| Compound | Working solution stability, Accuracy [2, 4] [%] | Working solution stability, Accuracy [2, 5] [%] | Working solution stability, Accuracy [2, 6] [%] | -80°C for 1 month stability, Accuracy [3, 7] [%] | Autosampler for 24 hours stability, Accuracy [3, 7] [%] | Room temperature for 24 h stability, Accuracy [3, 7] [%] | -80°C for 1 month stability, Accuracy [3, 8] [%] | Autosampler for 24 hours stability, Accuracy [3, 8] [%] | Room temperature for 24 h stability, Accuracy [3, 8] [%] | -80°C for 1 month stability, Accuracy [3, 9] [%] | Autosampler for 24 hours stability, Accuracy [3, 9] [%] | Room temperature for 24 h stability, Accuracy [3, 9] [%] | Freeze thaw cycles stability, Accuracy [3, 7] [%] | Freeze thaw cycles stability, Accuracy [3, 8] [%] | Freeze thaw cycles stability, Accuracy [3, 9] [%] | AUC [1, 12] [ng·h/mL] | other results |
| --- | --- | --- | --- | --- | --- | --- | --- | --- | --- | --- | --- | --- | --- | --- | --- | --- | --- |
| COc1ccc(C=O)cc1O [isovanillin] | 85.0 | 104 | 96.1 | 99.4 | 114 | 103 | 109 | 100 | 107 | 100 | 112 | 106 | 107 | 101 | 98.6 |  | Detection in rat plasma after oral administration ([1]; LLOQ 2.4 ng/mL): not detected |
| COC1CC(OC2CCC3(C)C4CCC5(C)C(C6=CC(=O)OC6)CCC5(O)C4CCC3(O)C2)OC(C)C1OC1OC(CO)C(O)C(O)C1O (stereo not shown) [periplocin] | 94.4 | 103 | 98.9 | 92.9 | 113 | 96.4 | 115 | 113 | 111 | 115 | 109 | 116 | 113 | 93.7 | 114 | 83 ± 58.6 | t1/2 [1, 10]: 1.08 ± 0.98 h; half-life [1, 11]: 1.21 ± 1.11 h; AUC(0-inf) [1, 12]: 105 ± 70.9 ng·h/mL; Tmax [1, 12]: 0.31 ± 0.16 h; Cmax [1, 13]: 91.4 ± 53 ng/mL; MRT [1, 12]: 1.21 ± 1.11 h |
| CO[C@H]1C[C@H](O[C@H]2CC[C@]3(C)[C@H]4CC[C@]5(C)[C@@H](C6=CC(=O)OC6)CC[C@]5(O)[C@@H]4CC[C@]3(O)C2)O[C@H](C)[C@H]1O [periplocymarin] | 84.2 | 110 | 95.1 | 102 | 102 | 98.5 | 106 | 101 | 107 | 102 | 108 | 102 | 103 | 113 | 113 | 1690 ± 1170 | half-life [1, 11]: 30.2 ± 11.8 h; Cmax ratio periplocymarin versus periplogenin ([1]; rat plasma): 9 times; AUC(0-inf) [1, 12]: 2260 ± 1280 ng·h/mL; Tmax [1, 12]: 5.49 ± 4.34 h; Cmax [1, 13]: 126 ± 96.4 ng/mL; MRT [1, 12]: 17.1 ± 2.48 h |
| C[C@]12CC[C@H](O)C[C@@]1(O)CC[C@@H]1[C@@H]2CC[C@]2(C)[C@@H](C3=CC(=O)OC3)CC[C@]12O [periplogenin] | 81.5 | 111 | 99.4 | 98.7 | 104 | 101 | 109 | 108 | 92.6 | 108 | 110 | 115 | 92.8 | 116 | 112 |  |  |
| O=Cc1ccc(O)c(O)c1 [protocatechuic aldehyde, reference compound] |  |  |  |  |  |  |  |  |  |  |  |  |  |  |  |  | Working solution stability of ISs, accuracy ([2]; IS working solutions, 2 weeks at 4°C): 101% |
| COc1cc2ccc(=O)oc2cc1O [scopoletin] |  |  |  |  |  | 103 |  |  |  |  |  |  |  |  |  | 103 ± 76.4 | Cmax [1, 10]: 177.8 ± 133.85 ng/mL; Cmax ([1]; male, Sprague-Dawley, rat, plasma, po, 18.9 g/kg, male Sprague-Dawley rats, plasma, n = 6, mean ± SD, read-out: Cmax): 178 ± 134 ng/mL; AUC(0-inf) [1, 14]: 206 ± 153 ng·h/mL; Tmax [1, 14]: 0.1 ± 0.03 h; half-life [1, 14]: 0.19 ± 0.08 h; MRT [1, 14]: 11.8 ± 6.6 h |
| CC(=O)CC(c1ccccc1)c1c(O)c2ccccc2oc1=O (stereo not shown) [warfarin, reference compound] |  |  |  |  |  |  |  |  |  |  |  |  |  |  |  |  | Working solution stability of ISs, accuracy ([2]; 2 weeks): 109% |
